Test results as given in PubChem BioAssay AID1241 (SRMLSC, 2008).

assay: compounds inducing NF-kB luciferase expression – cell-based, SH-SY5Y, dose response (AID 1241); settings: SH-SY5Y NF-kB promoter luciferase reporter, fold induction

Structure (SMILES) | EC50 [nM]
O=C(/C=C/c1ccccc1[N+](=O)[O-])Nc1ccccc1 | 10400
CCN(CC)c1ccc(/C=N/NC(=S)NC)c(O)c1 | 1980
O=C(CCCc1ccccc1)N1CCc2ccccc21 | 2570
Cc1ccc(NC2=Nc3ccccc3CS2)cc1 | 1340
COc1ccc(-c2cc(=O)c3cc(O)ccc3o2)cc1 | 6990
O=C(Nc1ccc(Cl)cn1)c1cc2ccccc2o1 | 2430
Nc1nn(-c2ccccc2)c(N)c1N=Nc1ccc2c(c1)OCO2 | 1600
Nc1c(C(=O)Nc2ccc(Cl)cc2)oc2ccccc12 | 11000
COc1cccc(-c2cc(C(=O)N3CCCCCC3)no2)c1 | 1990
Cc1ccc(N/C=C(/C#N)c2ccsc2)cc1C | 6870
Nc1ccc2nc(-c3ccc(Cl)cc3)[nH]c2c1 | 9960
CCOC(=O)Cc1ccc2sc(-c3ccccc3)nc2c1 | 6450
COc1ccc2nc3oc(C(=O)N4CCCCC4)cc3cc2c1 | 5270
COc1ccc(Nc2nc(-c3cccs3)cs2)c(OC)c1 | 2330
O=C(c1ccccc1)n1ccc(-c2cnc(-c3ccccc3)s2)n1 | 1490
N#C/C(=N\Nc1ccc(F)cc1)C(=N)N1CCCCCC1 | 2170
O=C(c1cnn(-c2ccccc2)c1)c1ccccc1O | 1700
Cc1ccc(NC(=O)COc2ccccc2[N+](=O)[O-])nc1 | 18200

Structure (SMILES) | EC50 [nM]
Clc1ccccc1-c1nnc(-c2ccc3c(c2)OCO3)o1 | 1410
CC(=O)Nc1nc2ccc(-c3nc4ccccc4o3)cc2s1 | 1460
Oc1ccc(-c2csc(Nc3ncccn3)n2)cc1 | 3440
CCOC(=O)c1ccc2nc(NC(=O)c3cccs3)sc2c1 | 1930
COc1cc(/C=N/Nc2nc3ccccc3s2)ccc1OC(=O)c1ccccc1F | 1420
Cc1cnc(NC(=O)Nc2ccc(Cl)cc2)s1 | 24000
Cc1c(C(=O)NC2=NCCS2)oc2ccccc12 | 1030
Cc1cccc(Nc2nc(-c3cccs3)cs2)n1 | 1220
Fc1ccccc1Nc1nc2c(s1)CCc1ccccc1-2 | 3360
O=C(O)c1ccc2nc(-c3ccccc3)sc2c1 | 1840
O=C(Nc1nc(-c2nc3ccccc3s2)cs1)C1CC1 | 15600
O=C(NC(=S)Nc1ccc2c(c1)OCO2)c1ccccc1 | 5700
S=C(c1ccc(-c2ccc(Cl)c(Cl)c2)o1)N1CCOCC1 | 5190
Oc1ccc(-c2nnc(-c3ccc(O)cc3)nn2)cc1 | 5890
COc1ccc(-c2nnc(-c3ccc(N)cc3)o2)cc1 | 2120
Cc1ccc(/C=C/C(=O)NC2=NCCS2)cc1 | 4320
COc1ccc(N=Cc2sc(O)c3ccccc23)cc1 | 992
Cn1cccc1C(=O)C(=O)Nc1ccc(Cl)cc1 | 25200

Further lines, results first:

EC50 [nM] | Structure (SMILES)
598 | C=CCNc1nc(-c2cc3ccccc3o2)cs1
781 | O=C(C=C1SCCS1)/C=C/c1ccco1
685 | CN1/C(=C/C(=O)c2cccs2)Sc2ccccc21
220 | O=C(Cc1nc(=O)c2ccccc2s1)Nc1ccccc1
524 | c1ccc2c(c1)CCN(c1nc3cc4c(cc3s1)OCO4)C2
623 | O=C(c1cccs1)c1ccc(-c2cccs2)s1
966 | c1ccc2oc(-c3csc(N4CCOCC4)n3)cc2c1
650 | COc1ccc(-c2cn3c4c(sc3n2)CCCC4)cc1
< 59 | C/C(N)=C(/C#N)C(=O)CSc1nnc(-c2ccc3c(c2)OCO3)o1
557 | Cc1ccnc(NC(=O)/C=C/c2ccccc2[N+](=O)[O-])c1
907 | Cc1cc2nc(-c3ccc(SCC(=O)Nc4ccc(S(=O)(=O)NC5CC5)cc4)nc3)[nH]c2cc1C
104 | CC(=O)CSc1nc2cc3c(cc2cc1C#N)OCCO3
155 | Cc1ccc2nc(-c3ccc(NC(=O)CCN4C(=O)c5ccccc5C4=O)cc3)sc2c1
793 | O=C(/C=C/c1ccc(Cl)cc1)Nc1nccs1
829 | Cc1cccc(/C=C/c2nc3ccccc3c(=O)[nH]2)c1
675 | Nc1nn(-c2cccc(F)n2)cc1-c1ccc(Cl)cc1
874 | Cc1ccc(Nc2nc3ccccc3s2)c(C)c1
